{"source": "patent US20100068280A1", "about": "“SUSTAINED RELEASE PHARMACEUTICAL DOSAGE FORM CONTAINING PHENYLEPHRINE” (priority 2006, published 2010)", "origin": "cited, not measured here", "settings": "in vivo"}
{"smiles": "CN1CCC(=C2c3ccccc3CCc3cccnc32)CC1", "note": "[Azatadine]", "values": [{"measurement": "elimination half-life", "result": "9 to 12", "unit": "h"}]}
